Results taken from patent US7588903B2, “Use of isogenic drug-resistant cell lines to determine the sequence of chemotherapeutic drug treatment” (priority 2003, dated 2009).
Where “and” joins values, the source holds several entries; their conditions need not be identical. Identical values can stand only once. Like-named read-outs stand apart in the source and are kept apart here.

Experiments:
MCF-7DOX cells [1] = assay type: cell-based; conditions: for resistance factor (IC50 for MCF-7DOX cells divided by IC50 for MCF-7 cells): 24 h drug treatment, clonogenic assay
Source text: (§1) Twice weekly, nonadherent (dead) cells were removed by discarding the existing medium and replacing it with fresh, drug-containing medium. […] At the end of the two-week period, all remaining viable cells were released by trypsinization, diluted 10-fold into PBS, and harvested by centrifugation. The cells were resuspended in fresh H-21 medium, with several aliquots removed for storage and future analysis. […] Nonadherent dead cells were again removed as described above and the process repeated until a drug dose was reached where all cells in the population were killed. Cells that grew at the maximally-tolerated drug concentrations were deemed to be “terminally selected”.
(§2) Thus, the concentration of valspodar used in some experiments was increased to 10 μM.
(§3) Briefly, 5 ml of H21 medium with 10% fetal bovine serum was introduced into 12 tissue culture flasks (25 cm^2 area) and each flask seeded with 2.5×10^5 cells. […] Each sample was vortexed vigorously for 10 s to ensure even distribution of cells within the viscous medium. 1.2 ml of each cellular suspension were placed into 6 well plates and incubated for a minimum of one week at 37° C./5% CO2 until large colonies of cells were visible.

MCF-7TAX cells [2] = assay type: cell-based; conditions: for resistance factor (IC50 for MCF-7TAX cells divided by IC50 for MCF-7 cells): 24 h drug treatment, clonogenic assay
Source text: as §1, §2, §3

MCF-7 cells [3] = assay: Clonogenic assay, drug-sensitive parental cells; conditions: for IC50: Homo sapiens
procaspase-7 = assay: Immunoblotting of whole cell extracts of MCF-7 cells after drug treatment; assay type: cell-based, human; conditions: 24 h drug treatment
Experimental: (§4) Extraction of proteins from whole cells was performed using RIPA buffer [1% Nonidet P-40, 0.5% sodium deoxycholate, 0.1% SDS, and 1 Complete™ protease inhibitor tablet (Roche Pharmaceuticals, Baie d'Urfe, QC) in 50 ml of PBS]. Prior to use, the RIPA buffer was supplemented with sodium orthovanadate and phenylmethylsulfonyl fluoride at final concentrations of 1 mM and 0.1 mg/ml, respectively. Cultured cells were grown as a monolayer and allowed to reach 70-90% confluence in 10 cm tissue culture plates. Twenty-four hours prior to extraction, some plates of cells were treated with 9 nM doxorubicin or 0.56 nM paclitaxel. After drug treatment, the medium was removed and the cells rinsed twice with PBS. All further steps were carried out on ice to minimize denaturation/proteolysis of the proteins. Chilled RIPA buffer (0.6 ml) was added to each plate, after which the cells were scraped from the plate using a Teflon tape-coated razor blade, and transferred to a 1.5 ml microfuge tube. An additional 0.3 ml of RIPA buffer was added to the plate and the resultant suspension was combined with the lysate. The sample was then passed repeatedly through a 21 gauge needle to lyse the cells and shear any DNA present. The lysates were then incubated on ice for 30 minutes, after which they were clarified by centrifugation at 15,000 g for 20 minutes at 4° C. The supernatants were then removed, mixed well, and aliquots placed in 0.5 ml microfuge tubes and stored at −80° C.
(§5) Proteins ([…]) from whole cell extracts were loaded into each lane of a 10% SDS-polyacrylamide gel, on duplicate gels. After electrophoresis, one of the gels was stained with Coomassie Brilliant Blue R to confirm that similar amounts of protein were loaded on gels. A second gel was electrophoretically transferred to a nitrocellulose membrane and the membrane incubated for one hour in blocking buffer [TBS buffer (20 mM Tris, 150 mM NaCl, pH 7.5) supplemented with 5% skim milk powder] to occupy all remaining protein-binding sites on the membrane. After blocking, the membranes were incubated for 1.5 hours at room temperature with an antibody to either caspase-3 (Santa Cruz Biotechnology, Santa Cruz, Calif., clone E-8), caspase-7 (Pharmingen Laboratories, San Diego, Calif., clone B94-1) or caspase-9 (Santa Cruz Biotechnology, Santa Cruz, Calif., clone C-17). Both antibodies were diluted 1:500 in blocking buffer containing 0.1% Tween 20. The primary antibody was then discarded and the membrane washed exhaustively with TBST (TBS buffer supplemented with 0.1% Tween 20). […]

procaspase-9 [4] = assay: as above; assay type: cell-based, human; conditions: 24 h, 9 nM doxorubicin or 0.56 nM paclitaxel
Experimental: as §4, §5

MCF-7TAX cells [5] = conditions: 2 μM doxorubicin
procaspase-9 [6] = assay: Doxorubicin treatment of PA1 ovarian cell line, procaspase-9 level; assay type: cell-based; conditions: PA1 cells
MCF-7 cells [7] = assay: Selection of MCF-7 cells in increasing drug concentrations (maximally tolerated dose); assay type: cell-based, human; conditions: 3-fold dose steps, terminally selected
Experimental: Twice weekly, nonadherent (dead) cells were removed by discarding the existing medium and replacing it with fresh, drug-containing medium. […] At the end of the two-week period, all remaining viable cells were released by trypsinization, diluted 10-fold into PBS, and harvested by centrifugation. The cells were resuspended in fresh H-21 medium, with several aliquots removed for storage and future analysis. The remaining cells were incubated with drug at a concentration 3-fold higher than the previous dose. Nonadherent dead cells were again removed as described above and the process repeated until a drug dose was reached where all cells in the population were killed. Cells that grew at the maximally-tolerated drug concentrations were deemed to be “terminally selected”. The maximally-tolerated drug doses during the selection process were 0.3 μM and 6.6 nM for doxorubicin and paclitaxel, respectively.

MCF-7DOX cells [8] = assay: Cellular doxorubicin uptake by flow cytometry; conditions: 2 μM doxorubicin, steady state
MCF-7DOX cells [9] = assay: [3H]-paclitaxel / [14C]-5-fluorouracil accumulation by liquid scintillation; conditions: 10 nM paclitaxel, 24 hours
[10] = MCF7, read-out: IC50 (uptake concentration near the IC50)
[11] = MCF7, read-out: concentration required to kill 50% of the cells (IC50)

COc1cccc2c1C(=O)c1c(O)c3c(c(O)c1C2=O)C[C@@](O)(C(=O)CO)C[C@@H]3O[C@H]1C[C@H](N)[C@@H](O)[C@H](C)O1 [epirubicin]
resistance factor (IC50 for MCF-7DOX cells divided by IC50 for MCF-7 cells) (MCF-7DOX cells [1]): 124 fold | resistance factor (IC50 for MCF-7TAX cells divided by IC50 for MCF-7 cells) (MCF-7TAX cells [2]): ~13 fold

CC[C@]1(O)C[C@@H]2CN(CCc3c([nH]c4ccccc34)[C@@](C(=O)OC)(c3cc4c(cc3OC)N(C)[C@H]3[C@@](O)(C(=O)OC)[C@H](OC(C)=O)[C@]5(CC)C=CCN6CC[C@]43[C@@H]65)C2)C1 [vinblastine, Vinblastine]
resistance factor (IC50 for MCF-7DOX cells divided by IC50 for MCF-7 cells) (MCF-7DOX cells [1]): approximately 4600 fold

COc1cc([C@@H]2c3cc4c(cc3[C@@H](O[C@@H]3O[C@@H]5CO[C@@H](C)O[C@H]5[C@H](O)[C@H]3O)[C@H]3COC(=O)[C@H]23)OCO4)cc(OC)c1O [etoposide]
resistance factor (IC50 for MCF-7DOX cells divided by IC50 for MCF-7 cells) (MCF-7DOX cells [1]): 31 fold | resistance factor (IC50 for MCF-7TAX cells divided by IC50 for MCF-7 cells) (MCF-7TAX cells [2]): Very little to no cross-resistance

CC(=O)O[C@@]12CO[C@@H]1C[C@H](O)[C@@]1(C)C(=O)[C@H](O)C3=C(C)[C@@H](OC(=O)[C@H](O)[C@@H](NC(=O)OC(C)(C)C)c4ccccc4)C[C@@](O)([C@@H](OC(=O)c4ccccc4)[C@H]21)C3(C)C [docetaxel]
resistance factor (IC50 for MCF-7DOX cells divided by IC50 for MCF-7 cells) (MCF-7DOX cells [1]): 14,600 fold | resistance factor (IC50 for MCF-7TAX cells divided by IC50 for MCF-7 cells) (MCF-7TAX cells [2]): 46 fold

N.N.[Cl][Pt][Cl] [cisplatin]
resistance factor (IC50 for MCF-7TAX cells divided by IC50 for MCF-7 cells) (MCF-7TAX cells [2]): Very little to no cross-resistance

O=c1[nH]cc(F)c(=O)[nH]1 [5-fluorouracil]
IC50 (MCF-7 cells [3]; [10]): ~1000 nM | resistance factor (IC50 for MCF-7TAX cells divided by IC50 for MCF-7 cells) (MCF-7TAX cells [2]): 13 fold

O=P1(N(CCCl)CCCl)NCCCO1 (stereo not shown) [cyclophosphamide]
resistance factor (IC50 for MCF-7TAX cells divided by IC50 for MCF-7 cells) (MCF-7TAX cells [2]): Very little to no cross-resistance

COc1cccc2c1C(=O)c1c(O)c3c(c(O)c1C2=O)C[C@@](O)(C(=O)CO)C[C@@H]3O[C@H]1C[C@H](N)[C@H](O)[C@H](C)O1 [doxorubicin, Doxorubicin]
effect on procaspase-7 levels (procaspase-7): upregulated | effect on procaspase-9 levels (procaspase-9 [4]): elevated levels | doxorubicin uptake as percent of uptake in MCF-7 cells (MCF-7TAX cells [5]): 68.6% | IC50 (MCF-7 cells [3]; [11]): 9 nM | effect on procaspase-9 levels (procaspase-9 [6]): decrease in procaspase-9 levels | maximally-tolerated drug dose during the selection process (MCF-7 cells [7]): 0.3 µM | reduction of doxorubicin accumulation compared to MCF-7 cells (MCF-7DOX cells [8]): 91.4% | resistance factor (IC50 for MCF-7DOX cells divided by IC50 for MCF-7 cells) (MCF-7DOX cells [1]): 52 fold

CC(=O)O[C@H]1C(=O)[C@@]2(C)[C@H]([C@H](OC(=O)c3ccccc3)[C@]3(O)C[C@H](OC(=O)[C@H](O)[C@@H](NC(=O)c4ccccc4)c4ccccc4)C(C)=C1C3(C)C)[C@]1(OC(C)=O)CO[C@@H]1C[C@@H]2O [paclitaxel]
paclitaxel accumulated as percent of that in MCF-7 cells (MCF-7DOX cells [9]): 2.5% | effect on procaspase-7 levels (procaspase-7): without effect | effect on procaspase-9 levels (procaspase-9 [4]): no effect | IC50 (MCF-7 cells [3]; [10]): ~10 nM | IC50 (MCF-7 cells [3]; [11]): 0.56 nM | maximally-tolerated drug dose during the selection process (MCF-7 cells [7]): 0.0066 µM | resistance factor (IC50 for MCF-7DOX cells divided by IC50 for MCF-7 cells) (MCF-7DOX cells [1]): 4,700 fold and > 4,000 fold | resistance factor (IC50 for MCF-7TAX cells divided by IC50 for MCF-7 cells) (MCF-7TAX cells [2]): 42 fold

CN(Cc1cnc2nc(N)nc(N)c2n1)c1ccc(C(=O)N[C@@H](CCC(=O)O)C(=O)O)cc1 [methotrexate]
resistance factor (IC50 for MCF-7TAX cells divided by IC50 for MCF-7 cells) (MCF-7TAX cells [2]): Very little to no cross-resistance

CCc1c2c(nc3ccc(OC(=O)N4CCC(N5CCCCC5)CC4)cc13)-c1cc3c(c(=O)n1C2)COC(=O)[C@]3(O)CC [irinotecan]
resistance factor (IC50 for MCF-7TAX cells divided by IC50 for MCF-7 cells) (MCF-7TAX cells [2]): Very little to no cross-resistance

C/C=C/C[C@@H](C)C(=O)[C@H]1C(=O)N[C@@H](C(C)C)C(=O)N(C)CC(=O)N(C)[C@@H](CC(C)C)C(=O)N[C@@H](C(C)C)C(=O)N(C)[C@@H](CC(C)C)C(=O)N[C@@H](C)C(=O)N[C@H](C)C(=O)N(C)[C@@H](CC(C)C)C(=O)N(C)[C@@H](CC(C)C)C(=O)N(C)[C@@H](C(C)C)C(=O)N1C [valspodar]
effect on 5-fluorouracil sensitivity (MCF-7 cells [3]; MCF-7 cells): no effect | maximum amount which could be added without inducing significant cytotoxicity (MCF-7 cells [3]; MCF-7 cells, one hour at 37° C.): Two | effect on cell viability (MCF-7 cells [3]; non-expressing MCF-7 cells, 2 μM valspodar (data not shown)): only a slight effect | concentration tolerated without resulting in cell killing (MCF-7DOX cells [1]; MCF-7DOX cells): up to 10 μM | concentration tolerated without resulting in cell killing (MCF-7TAX cells [2]; MCF-7TAX cells): up to 10 μM
